# Results taken from patent US10945980B2, “Treatment for myopia” (The University of Newcastle, priority 2016, dated 2021).
# Tests used:
# [1] = test system: normal eye growth in guinea pigs; assay: Eye drops on normal growth and emmetropization (no lens wear); assay type: in vivo, guinea pig (Cavia porcellus); conditions: eye drops twice daily 9-16 days of age
# Experimental: (§1) Two experimental protocols were employed (see Table 4). In Experiment 1, young guinea pigs wore a −6D lens on one eye from 5-12 days of age. They were randomly divided within each litter into two groups of 10 animals each, and received either a drop of L-Arginine (100 mM, 1.7%) in Saline (pH 7.4) or Saline alone (0.9%, pH 7.4) twice per day in the eye wearing the lens (Table 4). Drops were administered at the beginning of their light cycle and again approximately 6 hrs later in the middle of their day cycle. Lenses were removed during the drop administration which occurred under dim red light or in darkness. A single large drop was bathed on the cornea for 3 min in the lens-wearing eye in hand held animals. A clean lens was then reintroduced onto the eye. In Experiment 2, 14 guinea pigs were given eye drops in the same manner as in Experiment 1, but in both eyes and without any lens-wear, to determine the effect of the eye drops on normal eye growth. Animals received one drop of either 1.7% L-arginine (n=7) or atropine (Minims Atropine Sulphate 1%, Bausch & Lomb, preservative free, n=7) in one eye and saline (0.9%) in the other eye twice per day from 9-16 days of age.
# (§2) In Experiment 1, at the end of the lens-wearing period, at 12 days of age just before the morning lights came on, both eyes were cyclopleged (1% Cyclopentolate—to paralyse the focussing muscles of the eye to a resting state) and 1.25 hours later, refractive error (RE) was measured. Animals were then anaesthetised with gaseous anaesthetic (1.5% isoflurane in oxygen) and eye length measures were taken in both eyes with high frequency ultrasound as described in Example 1. Biometry measures were also taken in the same manner before the lens wear period at 5 days of age. [No refractive measures were done at 5 days of age as cycloplegia could have interfered with the drug or lens response]. In Experiment 2, refractive error and eye length using ultrasound were measured in the same manner at 17 days of age, 24 hours after the previous drop was administered.
# (§3) After cycloplegia was induced, refractive error was measured in each eye using an Autorefractor (Nidek AR-20, Japan). The spherical equivalent was calculated as the average of the sphere plus half the cylinder as is normal in clinical practice. All reported refractive errors are the spherical equivalent. Next, ocular length was measured using high frequency ultrasound (20 MHz) as previously described (McFadden et al, 2004). At least 20 traces were recorded for each eye and distances were averaged for at least 10 of these recordings. Peaks from the recordings were selected for the back of the cornea, the crystalline lens, and the vitreous chamber, and the layers at the back of the eye: the retina, choroid, and sclera. Ocular length was defined as the summed measurement from the front of the cornea to the back of the sclera.
# (§4) Differences between the two eyes were analysed by a 2-tailed T-tests. The mean of calculated differences between the two eyes is referred to as relative myopia or relative ocular length and the difference in the change in ocular length in the treated compared to the untreated eye as relative growth.
# [2] = test system: lens-induced myopia in guinea pigs; assay: L-arginine eye drops in −6D lens-induced myopia; assay type: in vivo, guinea pig (Cavia porcellus)
# From the text: Guinea pigs (pigmented variety, Cavia porcellus) were bred, housed, and raised as described in Example 1. Lights were on a 12 hr light 12 hr dark cycle. The University of Newcastle Animal Care and ethics Committee approved all procedures.
# as §1, §2
# In Experiment 1, lens-induced myopia was achieved by attaching −6D concave lenses to matching Velcro arcs glued above and below the experimental eye as previously described (Howlett & McFadden, 2009). Lenses were exchanged with a clean lens after drop administration.
# as §3, §4
smiles,measurement,setting,value
N=C(N)NCCC[C@H](N)C(=O)O [L-arginine],ocular length on average,"[1]; measured at 17 days, p=0.22 between groups",8.124 mm
same,"mean refractive error, both eyes averaged","[1]; measured at 17 days, p=0.32 between groups",+4.43
same,effect on refractive error (drug eye vs saline eye),"[1]; no lens, 1.7% LA (p=0.69) or 1% Atropine (p=0.40)",did not affect the refractive error of the eye
same,difference between the two eyes in ocular length (drug eye vs saline control eye),"[1]; LA p=0.39, ATR p=0.42",−33 μm
same,animals that did not develop myopia in the lens-wearing eye,"[2]; 1.7% (100 mM) LA eye drops twice daily, −6D lens",7/10
same,relative eye growth (mean growth in ocular length) across all animals,"[2]; 1.7% LA eye drops twice daily, between 5 and 12 days of age, −6D lens, p=0.01 vs saline",42±17 μm
same,relative growth in the 70% of animals which failed to develop myopia,"[2]; 1.7% LA eye drops twice daily, between 5 and 12 days of age, p=0.44",10±12 μm
same,animals protected from developing myopia,"[2]; 1.7% LA eye drops twice daily, −6D lens",70%
same,relative myopia in the 7 animals that did not develop myopia,"[2]; 1.7% LA eye drops twice daily, −6D lens, p=0.000 vs saline",−2.5±0.7 D
same,"relative myopia, mean across all 10 animals","[2]; 1.7% LA eye drops twice daily, −6D lens, p=0.007 vs saline",−3.6±0.8 D
same,mean myopia as percent of that in control animals,"[2]; 1.7% LA eye drops, the 70% of animals protected",37%
same,mean refractive error in untreated eyes,"[2]; untreated fellow eyes of LA group at 12 days of age, 1.7% LA eye drops twice daily in the other eye",+5.2±0.5 D
